pIC50: −log10 of the molar value. Calls of active or inactive are those of the source. The rule behind the calls is not given here.
Assays:
[1] = target: T1, C-X-C chemokine receptor type 2 (Homo sapiens) (UniProt P25025); experiment: Antagonist activity at CXCR2 (unknown origin) assessed as inhibition of ligand-induced calcium flux measured upto 10 uM; format: functional; conditions: dose microM <=10
T1 sequence (whole entry): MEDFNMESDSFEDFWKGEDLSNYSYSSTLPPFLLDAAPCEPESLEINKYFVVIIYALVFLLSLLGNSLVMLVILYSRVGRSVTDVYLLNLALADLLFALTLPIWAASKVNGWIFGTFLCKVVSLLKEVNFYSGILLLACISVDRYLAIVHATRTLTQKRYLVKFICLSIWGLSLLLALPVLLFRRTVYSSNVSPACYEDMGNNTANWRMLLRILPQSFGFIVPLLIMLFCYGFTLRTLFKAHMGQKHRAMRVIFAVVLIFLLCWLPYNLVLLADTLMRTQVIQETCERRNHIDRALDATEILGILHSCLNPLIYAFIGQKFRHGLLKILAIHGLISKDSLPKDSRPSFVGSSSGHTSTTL

Cytochrome P450 2D6 = Cytochrome P450 2D6 (Homo sapiens, UniProt P10635); experiment: Inhibition of human recombinant CYP2D6 expressed in insect cells using AMMC as substrate preincubated for 30 mins followed by NADPH regenerating system addition and measured after 45 mins by fluorescence based assay; format: ADME
Chain of Cytochrome P450 2D6 (P10635 whole entry): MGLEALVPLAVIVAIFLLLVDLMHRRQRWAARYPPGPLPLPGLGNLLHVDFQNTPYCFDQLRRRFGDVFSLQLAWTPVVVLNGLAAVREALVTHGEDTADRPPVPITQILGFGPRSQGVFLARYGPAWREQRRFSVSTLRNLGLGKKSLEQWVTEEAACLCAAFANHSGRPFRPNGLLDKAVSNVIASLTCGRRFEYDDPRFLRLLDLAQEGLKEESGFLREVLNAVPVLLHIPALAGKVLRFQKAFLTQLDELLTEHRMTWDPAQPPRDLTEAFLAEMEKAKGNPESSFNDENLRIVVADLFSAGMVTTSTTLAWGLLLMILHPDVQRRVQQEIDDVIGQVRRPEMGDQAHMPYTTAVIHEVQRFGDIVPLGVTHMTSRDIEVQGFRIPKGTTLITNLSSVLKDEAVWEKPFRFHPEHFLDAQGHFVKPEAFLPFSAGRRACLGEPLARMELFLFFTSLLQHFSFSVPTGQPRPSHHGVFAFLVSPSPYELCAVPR

[2] = target: T2, C-C chemokine receptor type 6 (Homo sapiens) (UniProt P51684); experiment: Antagonist activity at CCR6 (unknown origin) assessed as inhibition of ligand-induced calcium flux measured upto 10 uM; format: functional; conditions: dose microM <=10
T2 sequence (whole entry): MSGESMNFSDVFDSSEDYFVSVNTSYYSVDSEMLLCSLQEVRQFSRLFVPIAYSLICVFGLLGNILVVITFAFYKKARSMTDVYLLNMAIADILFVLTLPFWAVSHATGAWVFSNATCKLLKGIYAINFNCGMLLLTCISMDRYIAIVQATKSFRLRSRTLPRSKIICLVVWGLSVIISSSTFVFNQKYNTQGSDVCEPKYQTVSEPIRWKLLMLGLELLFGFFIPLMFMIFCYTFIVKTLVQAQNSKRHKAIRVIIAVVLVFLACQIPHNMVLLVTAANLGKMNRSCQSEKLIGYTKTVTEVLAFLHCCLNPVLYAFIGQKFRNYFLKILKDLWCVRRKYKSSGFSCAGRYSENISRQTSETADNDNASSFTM

[3] = Metabolic stability in rat liver microsomes assessed as parent compound remaining incubated for 10 mins in presence of NADPH; format: ADME, Microsome; conditions: read-out: Stabilty
[4] = target: T3, C-C chemokine receptor type 4 (Homo sapiens) (UniProt P51679); experiment: Antagonist activity at CCR4 (unknown origin) assessed as inhibition of ligand-induced calcium flux measured upto 10 uM; format: functional; conditions: dose microM <=10
T3 sequence (whole entry): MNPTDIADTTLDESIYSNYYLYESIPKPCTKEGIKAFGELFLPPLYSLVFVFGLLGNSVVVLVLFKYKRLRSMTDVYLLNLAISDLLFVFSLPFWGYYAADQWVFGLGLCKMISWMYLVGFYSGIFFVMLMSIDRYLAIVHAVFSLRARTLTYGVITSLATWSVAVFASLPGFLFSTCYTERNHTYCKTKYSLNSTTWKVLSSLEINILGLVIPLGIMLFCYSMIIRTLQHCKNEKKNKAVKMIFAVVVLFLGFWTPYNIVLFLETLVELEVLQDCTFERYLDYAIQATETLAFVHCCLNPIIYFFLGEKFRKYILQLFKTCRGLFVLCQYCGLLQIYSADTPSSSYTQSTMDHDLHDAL

[5] = Metabolic stability in human liver microsomes assessed as parent compound remaining incubated for 10 mins in presence of NADPH; format: ADME, Microsome; conditions: read-out: Stabilty
cells = conditions: Homo sapiens, CCRF-CEM
Description: Antagonist activity at muscarinic acetylcholine receptor in human CCRF-CEM cells assessed as inhibition of acetylcholine-induced calcium release preincubated for 25 mins followed by acetylcholine addition and monitered for 90 sec

[6] = Oral bioavailability in CD1 mouse at 30 mg/kg measured after 8 hrs by LC-MS/MS analysis; format: ADME, organism-based; conditions: in vivo
[7] = target: Voltage-gated inwardly rectifying potassium channel KCNH2 (Homo sapiens, UniProt Q12809); experiment: Inhibition of human ERG by automated patch clamp method
Chain of Voltage-gated inwardly rectifying potassium channel KCNH2 (Q12809 whole entry): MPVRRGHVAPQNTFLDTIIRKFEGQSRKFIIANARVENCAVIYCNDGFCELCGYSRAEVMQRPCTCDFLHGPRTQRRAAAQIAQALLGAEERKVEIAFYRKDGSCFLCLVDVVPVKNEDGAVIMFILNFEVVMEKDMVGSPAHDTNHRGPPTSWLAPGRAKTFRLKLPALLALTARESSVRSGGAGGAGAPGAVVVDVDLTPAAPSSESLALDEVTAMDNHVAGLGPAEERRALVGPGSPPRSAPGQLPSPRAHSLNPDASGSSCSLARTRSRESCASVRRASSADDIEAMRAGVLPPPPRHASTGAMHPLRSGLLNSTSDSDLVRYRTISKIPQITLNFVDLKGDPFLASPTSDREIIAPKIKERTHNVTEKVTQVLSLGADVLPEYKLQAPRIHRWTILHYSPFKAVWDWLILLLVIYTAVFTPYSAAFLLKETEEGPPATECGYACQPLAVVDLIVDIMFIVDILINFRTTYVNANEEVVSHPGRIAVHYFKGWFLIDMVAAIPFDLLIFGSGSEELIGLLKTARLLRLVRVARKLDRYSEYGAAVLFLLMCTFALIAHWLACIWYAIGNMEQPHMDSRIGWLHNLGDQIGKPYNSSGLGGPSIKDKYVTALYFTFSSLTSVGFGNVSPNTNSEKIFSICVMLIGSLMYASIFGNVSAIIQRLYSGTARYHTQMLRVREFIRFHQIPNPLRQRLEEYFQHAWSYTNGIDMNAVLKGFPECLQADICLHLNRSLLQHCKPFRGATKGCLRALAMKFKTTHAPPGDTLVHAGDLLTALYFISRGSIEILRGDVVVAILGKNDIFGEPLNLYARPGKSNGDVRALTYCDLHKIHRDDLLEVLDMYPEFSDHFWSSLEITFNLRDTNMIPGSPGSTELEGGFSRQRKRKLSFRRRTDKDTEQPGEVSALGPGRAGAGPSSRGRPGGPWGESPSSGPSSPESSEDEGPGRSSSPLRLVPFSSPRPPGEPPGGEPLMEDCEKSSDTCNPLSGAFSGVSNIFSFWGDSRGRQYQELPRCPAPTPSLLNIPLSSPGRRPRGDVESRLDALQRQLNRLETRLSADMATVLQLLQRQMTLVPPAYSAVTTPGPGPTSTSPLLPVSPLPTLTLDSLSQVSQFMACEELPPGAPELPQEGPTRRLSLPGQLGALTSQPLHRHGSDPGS

[8] = target: T4, C-X-C chemokine receptor type 1 (Homo sapiens) (UniProt P25024); experiment: Antagonist activity at CXCR1 (unknown origin) assessed as inhibition of ligand-induced calcium flux measured upto 10 uM; format: functional; conditions: dose microM <=10
T4 sequence (whole entry): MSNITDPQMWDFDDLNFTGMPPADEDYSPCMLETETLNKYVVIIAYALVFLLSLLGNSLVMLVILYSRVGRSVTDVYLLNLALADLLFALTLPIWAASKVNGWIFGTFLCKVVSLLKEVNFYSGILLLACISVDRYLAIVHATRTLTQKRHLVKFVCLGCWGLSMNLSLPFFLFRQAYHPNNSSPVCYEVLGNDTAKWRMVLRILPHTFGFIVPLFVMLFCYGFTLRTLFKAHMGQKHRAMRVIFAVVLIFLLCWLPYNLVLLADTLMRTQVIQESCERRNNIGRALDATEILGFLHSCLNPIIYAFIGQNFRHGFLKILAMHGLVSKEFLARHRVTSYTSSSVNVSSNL

[9] = target: C-X-C chemokine receptor type 4 (Homo sapiens, UniProt P61073); experiment: Antagonist activity at CXCR4 receptor in human CCRF-CEM cells assessed as inhibition of SDF-1alpha-induced calcium release preincubated for 25 mins followed by SDF-1alpha addition and monitered for 90 sec; format: functional, cell-based
Chain of C-X-C chemokine receptor type 4 (P61073 whole entry): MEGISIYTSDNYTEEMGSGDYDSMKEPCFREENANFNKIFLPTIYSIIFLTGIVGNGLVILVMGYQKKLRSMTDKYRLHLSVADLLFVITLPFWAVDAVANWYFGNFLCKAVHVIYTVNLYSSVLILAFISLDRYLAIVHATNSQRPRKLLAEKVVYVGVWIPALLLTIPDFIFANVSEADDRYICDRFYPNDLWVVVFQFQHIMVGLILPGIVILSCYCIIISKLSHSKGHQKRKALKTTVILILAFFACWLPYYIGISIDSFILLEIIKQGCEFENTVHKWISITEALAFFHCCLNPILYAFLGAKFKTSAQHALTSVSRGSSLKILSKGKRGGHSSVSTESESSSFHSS

[10] = target: C-C chemokine receptor type 5 (Homo sapiens) (UniProt P51681); experiment: Antagonist activity at CCR5 (unknown origin) assessed as inhibition of ligand-induced calcium flux measured upto 10 uM; format: functional; conditions: dose microM <=10
Chain of C-C chemokine receptor type 5 (Homo sapiens) (P51681 whole entry, looked up): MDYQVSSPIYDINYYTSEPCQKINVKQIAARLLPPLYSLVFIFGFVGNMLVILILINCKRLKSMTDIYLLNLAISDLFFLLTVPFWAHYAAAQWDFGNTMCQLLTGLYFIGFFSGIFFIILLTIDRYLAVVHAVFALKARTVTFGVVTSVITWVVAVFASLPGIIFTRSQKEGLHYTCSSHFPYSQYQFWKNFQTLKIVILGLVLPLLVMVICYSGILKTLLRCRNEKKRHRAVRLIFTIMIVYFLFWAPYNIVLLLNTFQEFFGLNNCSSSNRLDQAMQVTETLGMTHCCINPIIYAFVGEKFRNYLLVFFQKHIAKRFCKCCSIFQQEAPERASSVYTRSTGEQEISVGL

[11] = Clearance in CD-1 mouse at 30 mg/kg, po or at 3 mg/kg, iv by UPLC-MS/MS analysis; format: ADME, organism-based; conditions: in vivo
[12] = target: T5, C-C chemokine receptor type 7 (Homo sapiens) (UniProt P32248); experiment: Antagonist activity at CCR7 (unknown origin) assessed as inhibition of ligand-induced calcium flux measured upto 10 uM; format: functional; conditions: dose microM <=10
T5 sequence (whole entry): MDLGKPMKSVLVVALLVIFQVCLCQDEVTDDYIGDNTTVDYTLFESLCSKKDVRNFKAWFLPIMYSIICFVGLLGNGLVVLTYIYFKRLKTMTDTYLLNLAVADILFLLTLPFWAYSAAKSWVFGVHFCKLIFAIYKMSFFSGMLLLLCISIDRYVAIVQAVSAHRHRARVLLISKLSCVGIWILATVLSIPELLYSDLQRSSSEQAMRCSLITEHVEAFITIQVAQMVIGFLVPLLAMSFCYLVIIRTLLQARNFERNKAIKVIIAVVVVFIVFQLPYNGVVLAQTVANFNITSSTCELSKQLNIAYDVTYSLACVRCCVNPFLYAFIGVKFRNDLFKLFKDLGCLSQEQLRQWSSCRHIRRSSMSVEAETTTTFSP

Cytochrome P450 3A4 = Cytochrome P450 3A4 (Homo sapiens, UniProt P08684); experiment: Inhibition of CYP3A4 (unknown origin); format: ADME
Chain of Cytochrome P450 3A4 (P08684 whole entry): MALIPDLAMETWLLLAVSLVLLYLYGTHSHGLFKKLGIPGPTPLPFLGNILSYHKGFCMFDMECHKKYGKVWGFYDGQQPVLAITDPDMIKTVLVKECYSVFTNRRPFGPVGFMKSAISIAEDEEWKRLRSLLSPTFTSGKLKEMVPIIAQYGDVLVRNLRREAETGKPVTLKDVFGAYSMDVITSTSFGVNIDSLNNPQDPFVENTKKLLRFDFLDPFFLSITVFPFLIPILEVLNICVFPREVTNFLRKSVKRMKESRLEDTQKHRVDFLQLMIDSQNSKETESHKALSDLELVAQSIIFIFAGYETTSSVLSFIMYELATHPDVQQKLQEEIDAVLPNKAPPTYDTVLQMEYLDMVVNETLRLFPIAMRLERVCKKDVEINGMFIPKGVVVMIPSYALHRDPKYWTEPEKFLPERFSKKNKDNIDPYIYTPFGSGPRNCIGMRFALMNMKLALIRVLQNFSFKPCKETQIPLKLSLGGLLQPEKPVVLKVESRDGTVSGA

[13] = Cmax in CD-1 mouse at 30 mg/kg, po or at 3 mg/kg, iv by UPLC-MS/MS analysis; format: ADME, organism-based; parameters: dose 30 mg/kg; conditions: in vivo
[14] = Metabolic stability in mouse liver microsomes assessed as parent compound remaining incubated for 10 mins in presence of NADPH; format: ADME, Microsome; conditions: read-out: Stabilty
[15] = AUC (0 to t) in CD-1 mouse at 30 mg/kg, po or at 3 mg/kg, iv measured after 8 hrs by LC-MS/MS analysis; format: ADME, organism-based; parameters: time 8 hrs, dose 30 mg/kg; conditions: in vivo
[16] = Permeability of the compound at pH 7.4 incubated for 4 hrs by PAMPA; format: ADME; conditions: read-out: permeability
[17] = Volume of distribution in CD-1 mouse at 30 mg/kg, po or at 3 mg/kg, iv by UPLC-MS/MS analysis; format: ADME, organism-based; conditions: in vivo
[18] = C8h in CD-1 mouse at 30 mg/kg, po or at 3 mg/kg, iv measured up to 8 hrs by UPLC-MS/MS analysis; conditions: in vivo
[19] = Half life in CD1 mouse at 30 mg/kg, po or at 3 mg/kg, iv measured after 8 hrs by LC-MS/MS analysis; format: ADME, organism-based; conditions: in vivo
[20] = target: T6, C-X-C chemokine receptor type 3 (Homo sapiens) (UniProt P49682); experiment: Antagonist activity at CXCR3 (unknown origin) assessed as inhibition of ligand-induced calcium flux measured upto 10 uM; format: functional; conditions: dose microM <=10
T6 sequence (whole entry): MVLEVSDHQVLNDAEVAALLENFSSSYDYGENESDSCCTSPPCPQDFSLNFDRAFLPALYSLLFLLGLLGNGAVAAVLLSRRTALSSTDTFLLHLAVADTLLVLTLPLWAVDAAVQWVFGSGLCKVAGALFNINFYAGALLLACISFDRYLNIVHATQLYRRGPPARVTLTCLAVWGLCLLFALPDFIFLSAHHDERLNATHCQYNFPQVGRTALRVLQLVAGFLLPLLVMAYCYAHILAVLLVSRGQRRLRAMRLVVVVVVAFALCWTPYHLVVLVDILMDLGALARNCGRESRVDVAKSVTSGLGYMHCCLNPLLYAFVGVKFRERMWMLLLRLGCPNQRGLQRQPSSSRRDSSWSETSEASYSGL

For CN1CCN(Nc2cccc3c2CC(CN(C)[C@H]2CCCc4cccnc42)NC3)CC1 (single isomer, unassigned), the Activity [1] was “inactive”, the pIC50 (Cytochrome P450 2D6) was under 4.70 and the Activity [2] was “inactive”. The remaining at 10 min [3] was 21%, the Activity [4] was “inactive” and the remaining at 10 min [5] was 73.6%. For the same compound, the pIC50 (cells) was under 4.78, the bioavailability [6] was 24% and the pIC50 [7] was 5.17. The Activity [8] was “inactive”, the pIC50 [9] was 7.32 and the Activity [10] was “inactive”. The clearance [11] was 30.5 mL/min/kg, the Activity [12] was “inactive” and the pIC50 (Cytochrome P450 3A4) was under 4.70. The Cmax [13] was 791 ng/mL, the remaining at 10 min [14] was 85.8% and the AUC(0-t) at 8 h [15] was 4000 ng·h/mL. The Papp at 4 h [16] was 23.5 ×10⁻⁶ cm/s, the Vd [17] was 9.35 L/kg and the C8h at 8 h [18] was 297 ng/mL. For the same compound, the half-life [19] was 210 min and the Activity [20] was “inactive”.
